Experimental data reported in patent US6541501B2, “2-(aminomethyl)-tetrahydro-9-oxa-1,3-diaza-cyclopenta[a]-naphthalenyl derivatives with antipsychotic activity” (Wyeth, priority 2001, dated 2003).
Where a name gives a salt, the structure may show the parent alone.

What was measured:
[1] = molecular target: T1, dopamine autoreceptor (D2 Quin.) (Rattus norvegicus, UniProt P61169); experiment: Affinity for the dopamine autoreceptor, [3H]-quinpirole binding in homogenized rat striatal brain tissue
T1 construct: from tissue; host or cells: rat striatal brain tissue homogenate
T1 sequence (P61169 whole entry): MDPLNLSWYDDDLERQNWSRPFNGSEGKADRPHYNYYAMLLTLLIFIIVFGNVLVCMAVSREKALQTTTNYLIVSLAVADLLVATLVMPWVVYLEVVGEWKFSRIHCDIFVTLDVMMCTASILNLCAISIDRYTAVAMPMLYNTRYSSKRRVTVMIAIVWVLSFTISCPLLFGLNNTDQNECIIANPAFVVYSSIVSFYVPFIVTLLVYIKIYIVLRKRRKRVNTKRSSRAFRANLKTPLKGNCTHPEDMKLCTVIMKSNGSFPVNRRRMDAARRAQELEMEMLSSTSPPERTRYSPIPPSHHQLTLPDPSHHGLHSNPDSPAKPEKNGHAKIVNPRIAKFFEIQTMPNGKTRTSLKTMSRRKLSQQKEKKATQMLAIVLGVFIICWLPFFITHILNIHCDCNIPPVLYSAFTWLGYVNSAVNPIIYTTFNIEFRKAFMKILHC
Method: Affinity for the dopamine autoreceptor was established by a modification of the standard experimental test procedure of Seemen and Schaus, European Journal of Pharmacology 203: 105-109, 1991, wherein homogenized rat striatal brain tissue is incubated with [^3H]-quinpirole (Quin.) at various concentrations of test compound, filtered, washed and counted in a Betaplate scintillation counter.

dopamine D2 receptor = experiment: Affinity for the dopamine D2 receptor, [3H]-spiperidone binding in homogenized limbic brain tissue; details: ratio of IC50 D2 Spiper to IC50 D2 Quin. (LowAg/HighAg)
Method: High affinity for the dopamine D2 receptor was established by the standard experimental test procedure of Fields, et al., Brain Res., 136, […] (1977) and Yamamura et al., ed., Neurotransmitter Receptor Binding, Chapter 9, page 171, Raven Press, N.Y. (1978) wherein homogenized limbic brain tissue is incubated with [^3H]-spiperidone at various concentrations of test compound, filtered washed, and shaken with Hydrofluor scintillation cocktail (National Diagnostics) and counted in a Packard 460 CD scintillation counter.

melting point [°C]	SMILES	IC50 [1] [nM]	Ratio (dopamine D2 receptor)
229	O=c1[nH]c2c([nH]1)=C1OC(CNCc3ccccc3)CC=C1CC=2 (stereo not drawn) (as salt: oxalate) [Example 1, 8-(Benzylamino-methyl)-3,5,7,8-tetrahydro-9-oxa-1,3-diaza-cyclopenta[a]naphthalen-2-one]		
	O=c1[nH]c2ccc3c(c2[nH]1)OC(CNCc1ccccc1)CC3 (stereo not drawn) [Example 1, 8-(Benzylamino-methyl)-3,5,7,8-tetrahydro-9-oxa-1,3-diaza-cyclopenta[a]naphthalen-2-one]	0.29	309
